Where only a bound is given, the exact number is not on record here.

T1 sequence (P9WHT9 58-291): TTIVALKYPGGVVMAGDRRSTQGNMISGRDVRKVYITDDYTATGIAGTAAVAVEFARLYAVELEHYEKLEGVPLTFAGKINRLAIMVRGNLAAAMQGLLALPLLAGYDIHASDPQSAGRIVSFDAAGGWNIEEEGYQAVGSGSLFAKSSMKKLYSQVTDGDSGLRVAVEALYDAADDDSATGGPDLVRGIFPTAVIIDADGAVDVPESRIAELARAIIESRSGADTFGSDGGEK
T1 sequence (P9WHU1 whole entry partner): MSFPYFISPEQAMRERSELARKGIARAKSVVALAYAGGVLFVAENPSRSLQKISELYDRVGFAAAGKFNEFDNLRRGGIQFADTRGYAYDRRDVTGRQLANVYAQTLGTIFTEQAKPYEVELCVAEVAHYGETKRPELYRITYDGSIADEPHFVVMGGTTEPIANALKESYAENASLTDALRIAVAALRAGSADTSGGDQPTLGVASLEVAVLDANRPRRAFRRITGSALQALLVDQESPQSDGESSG

One test concerns the target T1, Mtb proteasome (Mycobacterium tuberculosis, UniProt P9WHT9).
T1 construct: Proteasome activity of the supernatants was assessed; endogenous in cells; host or cells: Mycobacterium tuberculosis H37Ra (crude lysate supernatant)
Nature of the test: biochemical.
Conditions: not given
For the compound `C/C=C(/C)C(=O)O[C@H]1[C@@H](OC(C)=O)c2c(ccc3ccc(=O)oc23)OC1(C)C` [praeruptorin A], the “IA: inhibitory activity of Mtb proteasome” value (from here on “IA: inhibitory activity”) stood at 0.00%. Take `COc1ccc(-c2oc3c(CC=C(C)C)c(O[C@@H]4O[C@H](CO)[C@@H](O)[C@H](O)[C@H]4O)cc(O)c3c(=O)c2O[C@@H]2O[C@@H](C)[C@H](O)[C@@H](O)[C@H]2O)cc1` [icarrin, icariin]: the IC50 (in general, the concentration that inhibits the measured activity by half) was determined as 88.7 µM. As to `COc1c(O)cc2oc3cc(O)c(CC=C(C)C)c(O)c3c(=O)c2c1CC=C(C)C` [alpha mangostin], the “IA: inhibitory activity” value is on record as 64.16%. Still for that read-out and setting: for `COc1cc2c(c(OC)c1OC)-c1c(cc(OC)c(OC)c1OC)C[C@H](C)[C@H](C)C2` [deoxyschizandrin] the value was 23.86%; for `C=C1CC[C@@H]2[C@](C)(CO)[C@H](O)CC[C@@]2(C)[C@@H]1/C=C/C1=CCOC1=O` [dehydroandrographolide], 32.67%; for madecassoside, 0.00%. Same read-out and setting: for `COc1cc2ccc(=O)oc2c(O[C@@H]2O[C@H](CO)[C@@H](O)[C@H](O)[C@H]2O)c1O` [fraxin] the value was 0.00%. On to `COc1c(O)cc2oc(-c3ccc(O)cc3)cc(=O)c2c1O` [hispidulin], for which the IC50 amounted to 58.3 µM. Consider `C=C1C[C@@]2(O)O[C@@]3(C[C@H]2C(C)C)[C@@H](C)CC[C@@H]13` [curcumol], for which the “IA: inhibitory activity” value is given as 34.66%. As to `COc1c(O[C@@H]2O[C@H](C(=O)O)[C@@H](O)[C@H](O)[C@H]2O)cc(O)c2c(=O)cc(-c3ccccc3)oc12` [wogonoside], the “IA: inhibitory activity” value is 59.01%.

In turn, `O=c1c(O)c(-c2cc(O)c(O)c(O)c2)oc2cc(O)cc(O)c12` [myricetin] returned an IC50 of 55.4 µM. Regarding `C=C[C@H]1[C@H](O[C@@H]2O[C@H](CO)[C@@H](O)[C@H](O)[C@H]2O)OC=C2C(=O)OCC[C@]21O` [swertiamain], the “IA: inhibitory activity” value came out at 14.39%. Still for that read-out and setting: for `COc1ccc([C@H]2OC[C@H]3[C@@H]2CO[C@H]3c2ccc(O[C@@H]3O[C@H](CO)[C@@H](O)[C@H](O)[C@H]3O)c(OC)c2)cc1OC` [forsythin] the value was 20.02%; for `C=C(C)[C@@H]1CC[C@]2(CO)CC[C@]3(C)[C@H](CC[C@@H]4[C@@]5(C)CC[C@H](O)C(C)(C)[C@@H]5CC[C@]43C)[C@@H]12` [betulinol], 6.52%. The same measure, in the same setting: for `COc1ccc2cc1Oc1ccc(cc1)C[C@H]1c3cc(c(OC)cc3CCN1C)Oc1c(OC)c(OC)cc3c1[C@H](C2)N(C)CC3` [hanfangchin A] the value was 0.00%.

dipsacoside: the “IA: inhibitory activity” value worked out at 0.00%. The same measure, in the same setting: for `COc1ccc2cc1Oc1ccc(cc1)C[C@H]1c3cc(c(OC)cc3CCN1C)Oc1c(O)c(OC)cc3c1[C@H](C2)N(C)CC3` [hanfangchin B] the value was 0.00%; for `O=C(O[C@@H]1Cc2c(O)cc(O)cc2O[C@@H]1c1cc(O)c(O)c(O)c1)c1cc(O)c(O)c(O)c1` [epigallocatechin gallate], 45.21%.

The same test, now with this note: 0.5 h, read-out: IA: inhibitory activity of Mtb proteasome.
As for `O=c1cc(-c2ccc(O)c(O)c2)oc2cc(O)cc(O)c12` [luteolin], the inhibition at 200 µM is 0%. Same read-out and setting: for `COc1ccc(-c2oc3c(CC=C(C)C)c(O[C@@H]4O[C@H](CO)[C@@H](O)[C@H](O)[C@H]4O)cc(O)c3c(=O)c2O[C@@H]2O[C@@H](C)[C@H](O)[C@@H](O)[C@H]2O)cc1` [icarrin, icariin] the value was greater than 65%.

Regarding `CC(=O)O[C@H]1C(=O)[C@@]2(C)[C@H]([C@H](OC(=O)c3ccccc3)[C@]3(O)C[C@H](OC(=O)[C@H](O)[C@@H](NC(=O)c4ccccc4)c4ccccc4)C(C)=C1C3(C)C)[C@]1(OC(C)=O)CO[C@@H]1C[C@@H]2O` [paclitaxel, reference compound], the inhibition at 200 µM was found to be 0%. Same read-out and setting: for `C[C@@]12C[C@@]3(O)O[C@@H](O1)[C@]1(COC(=O)c4ccccc4)[C@H]3C[C@@]12O[C@@H]1O[C@H](CO)[C@@H](O)[C@H](O)[C@H]1O` [paeoniflorin] the value was 3.05%; for `O=c1c(-c2ccc(O)cc2)coc2c([C@@H]3O[C@H](CO)[C@@H](O)[C@H](O)[C@H]3O)c(O)ccc12` [puerarin], 0%; for `O=C(O)C1=C[C@@H](O)[C@@H](O)[C@H](O)C1` [shikimicacid], 0%. Turning to `OCc1ccccc1O[C@@H]1O[C@H](CO)[C@@H](O)[C@H](O)[C@H]1O` [salicin], the inhibition at 200 µM was 0%. As for `CC1(C)[C@@H](O)CC[C@]2(C)[C@H]3C(=O)C=C4[C@@H]5C[C@@](C)(C(=O)O)CC[C@]5(C)CC[C@@]4(C)[C@]3(C)CC[C@@H]12` [glycyrrhetinic Acid], the inhibition at 200 µM came to 0%. Still for that read-out and setting: for `C=C1CC[C@H]2C(=C)CC[C@H]3C(=C)C(=O)O[C@@H]3[C@@H]12` [dehydrocostuslactone] the value was 32.1%; for `O=c1c(O)c(-c2ccc(O)c(O)c2)oc2cc(O)cc(O)c12` [quercetin], greater than 65%; for `O=C1Nc2ccccc2/C1=C1/Nc2ccccc2C1=O` [indirubin], 46%. On the same count and under the same terms, for `CC(C)(C)[C@]1(O)CC2OC(=O)CC23C(=O)OC2OC(=O)[C@H](O)C231` (stereo partly drawn) [bilobalide] the value was 18.6%; for `C[C@H]1[C@H](OC(=O)CCC(=O)O)O[C@@H]2O[C@@]3(C)CC[C@H]4[C@H](C)CC[C@@H]1[C@@]24OO3` [artesunate, reference compound], 13.8%. On the same count and under the same terms, for `C=C1CC[C@@H]2[C@](C)(CO)[C@H](O)CC[C@@]2(C)[C@@H]1C/C=C1/C(=O)OC[C@H]1O` [andrographolide] the value was 0%. In the case of `O=C1CCC[C@@H]2[C@H]3CCCN4CCC[C@@H](CN12)[C@@H]34` [matrine], the inhibition at 200 µM was determined as 23.5%. Still for that read-out and setting: for `COc1cc2ccc(=O)oc2cc1OC` [scoparone] the value was 0%. As to `C=CCc1ccc(O)c(-c2cc(CC=C)ccc2O)c1` [magnolol], the inhibition at 200 µM was 0%.

`COc1ccc2ccc(=O)oc2c1CC=C(C)C` [osthole]: the inhibition at 200 µM stood at 0%. As to `O=C1c2cccc(O)c2C(=O)c2c(O)cc(CO)cc21` [aloe-emodin], the inhibition at 200 µM is 34.3%.

As to `COc1c(O)cc2oc(-c3ccc(O)cc3)cc(=O)c2c1O` [hispidulin], the inhibition at 200 µM was greater than 65%. Same read-out and setting: for `O=c1c(O)c(-c2cc(O)c(O)c(O)c2)oc2cc(O)cc(O)c12` [myricetin] the value was greater than 65%. On the same count and under the same terms, for `COC(=O)C1=CO[C@@H](O[C@@H]2O[C@H](CO)[C@@H](O)[C@H](O)[C@H]2O)[C@@H]2C(CO)=CC[C@H]12` [geniposide] the value was 0%. Still for that read-out and setting: for `COc1c(O)cc2c(c1O)[C@@H]1O[C@H](CO)[C@@H](O)[C@H](O)[C@H]1OC2=O` [bergenin] the value was 3.67%; for `COc1ccc2cc3[n+](cc2c1OC)CCc1cc2c(cc1-3)OCO2` [berberine], 0%; for `COc1c(O[C@@H]2O[C@H](CO)[C@@H](O)[C@H](O)[C@H]2O)cc2occ(-c3ccc(O)cc3)c(=O)c2c1O` [tectoridin], 0%. On to `CC(C)=CC[C@H](O)C1=CC(=O)c2c(O)ccc(O)c2C1=O` [alkannin], for which the inhibition at 200 µM turned out to be 52.4%. The same measure, in the same setting: for `O=c1ccc2ccccc2o1` [coumarin] the value was 0%; for `O=c1c2cc(O)c(O)cc2oc2cc(O)c([C@@H]3O[C@H](CO)[C@@H](O)[C@H](O)[C@H]3O)c(O)c12` [mangiferin], 31.9%.

As to `C[C@@H]1O[C@@H](OC[C@H]2O[C@@H](Oc3c(-c4ccc(O)c(O)c4)oc4cc(O)cc(O)c4c3=O)[C@H](O)[C@@H](O)[C@@H]2O)[C@H](O)[C@H](O)[C@H]1O` [rutin], the inhibition at 200 µM was 0%. Regarding `CC1(C)O[C@H]2CC(=O)OC[C@]23[C@H]2CC[C@@]4(C)[C@H](c5ccoc5)OC(=O)[C@H]5O[C@]54[C@]2(C)C(=O)C[C@@H]13` [limonin], the inhibition at 200 µM was 1.61%. Same read-out and setting: for `O=c1cc(-c2ccc(O)cc2)oc2cc(O)cc(O)c12` [apigenin] the value was 0%; for `OC[C@H]1O[C@@H](OCCc2ccc(O)cc2)[C@H](O)[C@@H](O)[C@@H]1O` [salidroside], 34%.

For the compound `O=C1C[C@@H]2OCC=C3CN4CC[C@]56c7ccccc7N1[C@H]5[C@H]2[C@H]3C[C@H]46` [strychnine], the inhibition at 200 µM amounted to 0%.
